Measurements as given in US5006560A, “Use of GABA-B selective agonists as anti-tussive agents” (Schering Corporation, priority 1989, dated 1991).

How the values were obtained:
[1] = system: capsaicin-induced cough; test: Capsaicin-induced cough in guinea pigs; format: in vivo, guinea pig; conditions: for ED50: Cavia porcellus, sc, capsaicin (0.3 mM) aerosol, guinea pigs, subcutaneous, read-out: ED50, reduction of cough frequency
Protocol: (§1) Unanesthetized male Dunkin Hartley guinea pigs (250-600 g) are placed into transparent plexiglas chambers and exposed to aerosols of capsaicin (300 μM), citric acid (0.55M), or their vehicles at an airflow of 4 L/min. Citric acid is dissolved in 0.9% saline vehicle and capsaicin is dissolved in 10% ethanol, 90% saline vehicle. The volume of solution aerosolized every minute is approximately 0.4 ml. The animals are first exposed to a vehicle aerosol for 4 minutes and then are exposed to citric acid or capsaicin aerosol for an additional 4 minutes. Coughing is detected by a microphone that is placed in the chamber and connected to an audio monitor and chart recorder. Coughs produced deflections on the chart paper which are later counted to determine a cough frequency. Test compounds are administered subcutaneously prior to exposure to citric acid or capsaicin. […] All statistics are expressed relative to control values (unpaired t-test). The results are shown in FIGS. 1A, 1B, 1C and 1D and are discussed below.
(§2) In FIGS. 1C and 1D, 3-APPA or vehicle was administered 45 minutes prior to data collection.
(§3) Guinea pigs were exposed to citric acid at a concentration of 0.55M. This dose of citric acid produced cough frequencies of 10-13 per exposure. The dose of capsaicin used was 0.3 mM and this dose produced cough frequencies of 7-9 per exposure. These doses produced consistent responses and were well tolerated by the animals. Larger doses (up to 2M for citric acid and 3 mM for capsaicin) produced distress to the animals. Lower doses (to 0.2M for citric acid and 0.03 mM for capsaicin) produced inconsistent cough responses.

[2] = system: mechanically-induced cough; test: Mechanically-induced cough in cats (probing intrathoracic trachea); format: in vivo, cat; conditions: mechanical stimulus
Protocol: (§4) Cats (2.2-3.5 kg) are anesthetized with sodium pentobarbital (35 mg/kg, i.p.). Supplemental anesthetic (5 mg/kg, i.v.) is administered as required. Cannulas are placed in a femoral vein and artery for administering drugs and measuring arterial blood pressure, respectively. A tracheostomy is performed.
(§5) Electromyograms (EMGs) of respiratory muscle activity are recorded via bipolar silver wire electrodes placed in the diaphragm and rectus abdominus muscles by the technique of Basmajian and Stecko (1962). The EMGs are amplified (1000-2000×), filtered (500 Hz-10 KHz), monitored on an oscilloscope, and integrated with a "Leaky" RC circuit (100 ms time constant).
(§6) These stimuli only elicit coughs, apneas, apneusis, or augmented breaths (sighs).
(§7) Coughing is produced by coordinated bursts of activity in inspiratory and expiratory muscles. We define a cough as a burst of activity at least 50% greater than control levels in the diaphragm (inspiratory muscle) immediately followed by or coincident with a burst of activity in the rectus abdominus muscle (expiratory muscle). These criteria eliminate apneas or apneusis (no inspiratory or expiratory bursts) and augmented breaths (no expiratory muscle activity). Test compounds are administered intravenously to determine their effects on mechanically (probe) and electrically (SLN) induced cough. […]

[3] = system: citric acid-induced cough; test: Citric acid-induced cough in guinea pigs; format: in vivo, guinea pig; conditions: for ED50: Cavia porcellus, sc, citric acid (0.55M) aerosol, guinea pigs, subcutaneous, read-out: ED50, reduction of cough frequency
Protocol: as §1, §2, §3

[4] = system: electrically-induced cough; test: Electrically-induced cough in cats (superior laryngeal nerve stimulation); format: in vivo, cat; conditions: electrical stimulus
Protocol: as §4, §5, §6, §7

[5] = 3-APPA 3 mg/kg i.v., baclofen 0.7 mg/kg i.v.

| SMILES | effect of prior treatment with 3-APPA on antitussive effect of baclofen ([1]; capsaicin model, 3-APPA 10 mg/kg s.c. before baclofen 1.0 mg/kg s.c., FIG. 1D) | effect of 3-APPA on antitussive response to baclofen [2, 5] | effect of prior treatment with 3-APPA on antitussive effect of baclofen ([3]; citric acid model, 3-APPA 10 mg/kg s.c. before baclofen 1.0 mg/kg s.c., FIG. 1C) | effect of 3-APPA on antitussive response to baclofen [4, 5] | ED50 [1] [mg/kg] | reduction in cough frequency ([1]; capsaicin model, FIG. 1B, 1 hour after s.c. treatment) | inhibitory effect on coughing ([2]; cumulative i.v. doses, 5 minutes after injection, FIG. 3A) | ED50 [3] [mg/kg] | reduction in cough frequency ([3]; citric acid model, FIG. 1A, 1 hour after s.c. treatment) | inhibitory effect on coughing ([4]; cumulative i.v. doses, 5 minutes after injection, FIG. 3B) |
| --- | --- | --- | --- | --- | --- | --- | --- | --- | --- | --- |
| NCCCP(=O)(O)O [3-APPA, 3-aminopropylphosphonic acid] | attenuated | attenuated these responses | attenuated | attenuated these responses |  |  |  |  |  |  |
| NCC(CC(=O)O)c1ccc(Cl)cc1 (racemic) [baclofen] |  |  |  |  | ~0.7 | dose-dependent reduction in cough frequency | dose-dependent | ~0.7 | dose-dependent reduction in cough frequency | dose-dependent |
| COc1ccc2c3c1O[C@H]1[C@@H](O)C=C[C@H]4[C@@H](C2)N(C)CC[C@@]341 [Codeine] |  |  |  |  | 10 |  |  | 30 |  |  |
